These results are taken from ChEMBL document CHEMBL4665691, “Callicarpins, Two Classes of Rearranged ent-Clerodane Diterpenoids from Callicarpa Plants Blocking NLRP3 Inflammasome-Induced Pyroptosis” (J Nat Prod, 2020).

The subject of this test is J774.A1. The test can be described thus: Cytotoxicity against mouse J774.A1 cells by LDH release assay. In kind it is functional, cell-based. In general terms: LDH in the medium is a marker of cell lysis.

`C[C@@H]1CC[C@]2(C)[C@H](CC(=O)[C@H]2C)[C@@]1(C)C[C@H](O)C1=CC(=O)OC1O` (some centres not stated): where the note is “Mus musculus, J774.A1”, the IC50 was 1.4 µM.
Compound `CC1=CCC[C@@H]2[C@@](C)(C[C@H](O)C3=CC(=O)OC3O)[C@H](C)CC[C@@]12C` (some centres not stated) returned an IC50 (Mus musculus, J774.A1) of 3.6 µM.
`CC(=O)O[C@@H]1CC[C@@H]2[C@@](C)(C[C@H](O)C3=CC(=O)O[C@@H]3OC(C)=O)[C@H](C)CC[C@@]2(C)C(=O)C1`: the half-maximal inhibitory concentration (IC50) (Mus musculus, J774.A1) turned out to be 5.3 µM.
Still for that read-out and setting: the figure for `COC(=O)[C@H]1C[C@@H]2[C@@](C)(C[C@H](O)C3=CC(=O)OC3O)[C@H](C)CC[C@@]2(C)[C@@]1(C)O` (some centres not stated) is 1.5 µM.
The same measure, in the same setting: to `C[C@@H]1CC[C@]2(C)[C@H](C[C@H](C(=O)O)[C@]2(C)O)[C@@]1(C)C[C@H](O)C1=CC(=O)OC1O` (some centres not stated) belongs 24.7 µM; to `C[C@@H]1CC[C@@]2(C)C(=O)C[C@H](O)CC[C@@H]2[C@@]1(C)C[C@H](O)C1=CC(=O)OC1O` (mixture of isomers), 25.4 µM.
`C[C@@H]1CC[C@@]2(C)C(=O)C[C@@H](O)CC[C@@H]2[C@@]1(C)C[C@H](O)C1=CC(=O)OC1O` (stereo in doubt; 1) gave an IC50 (j774.a1) of 16.6 µM.

By IC50 is commonly meant the point on the concentration scale where inhibition reaches its midpoint.
